Results on 1 compound are retold here after ChEMBL document CHEMBL4428075, “New antiproliferative 7-(4-(N-substituted carbamoylmethyl)piperazin-1-yl) derivatives of ciprofloxacin induce cell cycle arrest at G2/M phase” (Bioorg Med Chem, 2016).

Calls of active or inactive are those of the source. No cut-off for these calls is given here.

For data set [1], the system named is A549. In words: Induction of cell cycle arrest in human A549 cells assessed accumulation at G2/M phase at 25 uM after 24 hrs in presence of PFTalpha by FITC-labeled anti-BrdU antibody/7AAD staining based FACS calibur flow cytometric analysis (reference value: 63.9%). The format is functional.
In data set [2] the test system is A549. The data set is described as follows: Induction of cell cycle arrest in human A549 cells assessed as accumulation at sub G1 phase at 10 uM after 24 hrs by FITC-labeled anti-BrdU antibody/7AAD staining based FACS calibur flow cytometric analysis (reference value: 0.82 %). Type of data set: functional. (In flow cytometry, cells or beads pass a laser one at a time.)

The subject of data set [3] is A549. In words: Upregulation of p53 expression in human A549 cells after 24 hrs by Western blot analysis. The format is functional, cell-based. On the technique in general: In western blotting, separated proteins are transferred to a membrane and probed.
The subject of data set [4] is A549. The data set is described as follows: Induction of cell cycle arrest in human A549 cells assessed as accumulation at G1 phase at 10 uM after 24 hrs by FITC-labeled anti-BrdU antibody/7AAD staining based FACS calibur flow cytometric analysis (reference value: 65.9 %). The format is functional.
The test system of data set [5] is A549. In words: Induction of p21 expression in human A549 cells at 25 uM after 24 hrs in presence of PFTalpha by Western blot analysis. The format is functional, cell-based.
The subject of data set [6] is A549. In words: Induction of cell cycle arrest in human A549 cells assessed as accumulation at S phase at 25 uM after 24 hrs by FITC-labeled anti-BrdU antibody/7AAD staining based FACS calibur flow cytometric analysis (reference value: 20.9 %). The format is functional.
The test system of data set [7] is A549. In words: Induction of cell cycle arrest in human A549 cells assessed as accumulation at sub G1 phase at 15 uM after 24 hrs by FITC-labeled anti-BrdU antibody/7AAD staining based FACS calibur flow cytometric analysis (reference value: 0.82 %). The format is functional.
The subject of data set [8] is A549. In words: Induction of cell cycle arrest in human A549 cells assessed as accumulation at G1 phase at 5 uM after 24 hrs by FITC-labeled anti-BrdU antibody/7AAD staining based FACS calibur flow cytometric analysis (reference value: 65.9 %). Type of data set: functional.
Data set [9] has as its system A549. The data set is described as follows: Induction of cell cycle arrest in human A549 cells assessed as accumulation at G2/M phase at 15 uM after 24 hrs by FITC-labeled anti-BrdU antibody/7AAD staining based FACS calibur flow cytometric analysis (reference value: 12.61 %). The format is functional.
The test system of data set [10] is A549. In words: Induction of cell cycle arrest in human A549 cells assessed as accumulation at G1 phase at 25 uM after 24 hrs by FITC-labeled anti-BrdU antibody/7AAD staining based FACS calibur flow cytometric analysis (reference value: 65.9 %). The format is functional.
The subject of data set [11] is A549. The data set is described as follows: Induction of p53 expression in human A549 cells at 25 uM after 24 hrs in presence of PFTalpha by Western blot analysis. The format is functional, cell-based.
The subject of data set [12] is A549. The data set is described as follows: Induction of cell cycle arrest in human A549 cells assessed as accumulation at G2/M phase at 10 uM after 24 hrs by FITC-labeled anti-BrdU antibody/7AAD staining based FACS calibur flow cytometric analysis (reference value: 12.61 %). Type of data set: functional.
In data set [13] the test system is A549. The data set is described as follows: Induction of cell cycle arrest in human A549 cells assessed as accumulation at G1 phase at 15 uM after 24 hrs by FITC-labeled anti-BrdU antibody/7AAD staining based FACS calibur flow cytometric analysis (reference value: 65.9 %). Type of data set: functional.
Another data set relates to WI-38. In words: Upregulation of p53 expression human WI38 cells at 5 to 25 uM after 24 hrs by Western blot analysis. As to conditions: wi-38, 24 h. Type of data set: ADME, cell-based.

Turning to `O=C(CN1CCN(c2cc3c(cc2F)c(=O)c(C(=O)O)cn3C2CC2)CC1)Nc1ccc(Cl)cc1`, the Activity in the data set with A549 [1] is 23.7%; in the data set with A549 [2] it was 4.19%; in the data set on A549 [3] it was “Dose-dependent effect”; with A549 [4], 58.5%; in the data set with A549 [6], 10.5%; with A549 [7], 3.28%. Besides, the Activity with A549 [8] is listed as 68.9%; in the data set on A549 [9], 32.6%; in the data set on A549 [10], 24.8%; in the data set on A549 [12] it was 22.6%; in the data set with A549 [13], 46%; in the data set with WI-38, “Non-Toxic”. The result in the data set on A549 [5] and in the data set with A549 [11] was inactive.
